{
  "source": "the OPERA property sets (Mansouri et al. 2018)",
  "data": [
    {"values": [
      {"smiles": "COC(=O)Nc1ccc(C#N)cc1", "logP": 1.82},
      {"smiles": "C=CCOC(=O)Nc1ccc(OCC)c(OCC)c1", "logP": 2.75},
      {"smiles": "C#CCOC(=O)Nc1ccc(OCC)c(OCC)c1", "logP": 2.68},
      {"smiles": "COC(=O)Nc1ccccc1[N+](=O)[O-]", "logP": 2.1},
      {"smiles": "COC(=O)Nc1cccc(I)c1", "logP": 3.03},
      {"smiles": "CCOC(=O)Nc1ccc(OCC)c(OCC)c1", "logP": 2.54},
      {"smiles": "CCOc1ccc(NC(=O)OCc2ccccc2)cc1OCC", "logP": 3.29},
      {"smiles": "CCOc1ccc(NC(=O)OCCC#N)cc1OCC", "logP": 2.07},
      {"smiles": "CCOc1ccc(NC(=O)OC(CBr)CBr)cc1OCC", "logP": 3.5},
      {"smiles": "COC(=O)Nc1cccc(Br)c1", "logP": 2.75},
      {"smiles": "COC(=O)Nc1ccc(F)cc1", "logP": 1.95},
      {"smiles": "COC(=O)Nc1ccccc1OC", "logP": 1.84},
      {"smiles": "COC(=O)Nc1ccccc1I", "logP": 2.44},
      {"smiles": "CCCOC(=O)Nc1ccc(OCC)c(OCC)c1", "logP": 2.93},
      {"smiles": "CCc1ccc(NC(=O)OC)cc1", "logP": 2.72},
      {"smiles": "COC(=O)Nc1ccccc1Br", "logP": 2.3},
      {"smiles": "COC(=O)Nc1ccccc1Cl", "logP": 2.16},
      {"smiles": "CCOc1ccc(NC(=O)OC(C)C)cc1OCC", "logP": 2.91},
      {"smiles": "COC(=O)Nc1ccccc1F", "logP": 1.66},
      {"smiles": "CCOc1ccc(NC(=O)OC)cc1", "logP": 2.15},
      {"smiles": "COC(=O)Nc1ccccc1C", "logP": 1.69},
      {"smiles": "COC(=O)Nc1ccc(OC)cc1", "logP": 1.73},
      {"smiles": "CCOc1ccc(NC(=O)OCC(C)C)cc1OCC", "logP": 3.36},
      {"smiles": "COC(=O)Nc1ccccc1", "logP": 1.75},
      {"smiles": "COC(=O)Nc1ccc([N+](=O)[O-])cc1", "logP": 2.12},
      {"smiles": "COC(=O)Nc1cccc(C)c1", "logP": 2.29},
      {"smiles": "CCCCc1ccc(NC(=O)OC)cc1", "logP": 3.69},
      {"smiles": "CCOc1cccc(NC(=O)OC)c1", "logP": 2.31},
      {"smiles": "COC(=O)Nc1cccc(C#N)c1", "logP": 1.77},
      {"smiles": "CCOc1ccc(NC(=O)OC)cc1OCC", "logP": 2.1},
      {"smiles": "COC(=O)Nc1cccc(C(C)=O)c1", "logP": 1.63},
      {"smiles": "COC(=O)Nc1ccc(Cl)cc1", "logP": 2.55},
      {"smiles": "COC(=O)Nc1ccccc1C(F)(F)F", "logP": 2.09},
      {"smiles": "COC(=O)Nc1ccc(C)cc1", "logP": 2.29},
      {"smiles": "CCc1cccc(NC(=O)OC)c1", "logP": 2.74},
      {"smiles": "CCOc1ccc(NC(=O)OCCOC)cc1OCC", "logP": 2.27},
      {"smiles": "CCCCOC(=O)Nc1ccc(OCC)c(OCC)c1", "logP": 3.46},
      {"smiles": "CCOc1ccccc1NC(=O)OC", "logP": 2.43},
      {"smiles": "COC(=O)Nc1cccc(C(F)(F)F)c1", "logP": 2.74},
      {"smiles": "COC(=O)Nc1cccc([N+](=O)[O-])c1", "logP": 2},
      {"smiles": "COC(=O)Nc1cccc(OC)c1", "logP": 1.92}
    ]}
  ]
}
